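In this assay, cells in 96-well plates receive the compound at five concentrations for 48 hours. Endpoints are linearly interpolated between the surrounding concentrations. GI50 is the concentration that inhibits growth by half.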 Active and inactive are the calls of the source. Rule as the data show it: active = GI50 up to about 1.1 µM and inactive = higher. Where a SMILES comes first, the peptide text is derived from it. [ ]: non-standard residue; d: D form. The star is where a group is joined. Bn2Val = CC(C)[C@@H](C(=O)*)N(Cc1ccccc1)Cc1ccccc1; NH(3,4-diMeO-benzyl) = COc1ccc(CN*)cc1OC; NMeV = CN[C@H](C(=O)O)C(C)C
Assays:
Assay in all cases: NCI tumour cell line growth inhibition, 48 h
[1] = test system: HOP-62
[2] = test system: COLO 205
[3] = test system: SK-MEL-28
[4] = test system: NCI-H522
[5] = test system: HCT-15
[6] = test system: OVCAR-8
[7] = test system: A498
[8] = test system: HT-29
[9] = test system: NCI-H460
[10] = test system: 786-0
[11] = test system: SF-295
[12] = test system: A549
[13] = test system: PC-3
[14] = test system: OVCAR-5
[15] = test system: SK-OV-3
[16] = test system: UACC-62
[17] = test system: NCI-H23
[18] = test system: OVCAR-3
[19] = test system: LOX IMVI
[20] = test system: ACHN
[21] = test system: U-251
[22] = test system: Hs-578T
[23] = test system: RXF 393
[24] = test system: BT-549
[25] = test system: MDA-MB-435
[26] = test system: NCI-H226
[27] = test system: SNB-19
[28] = test system: Malme-3M
[29] = test system: CAKI-1
[30] = test system: UACC-257
[31] = test system: HL-60
[32] = test system: SF-539
[33] = test system: MDA-MB-231
[34] = test system: IGROV-1
[35] = test system: T47D
[36] = test system: OVCAR-4
[37] = test system: NCI/ADR-RES
[38] = test system: TK-10
[39] = test system: SK-MEL-5
[40] = test system: HOP-92
[41] = test system: MOLT-4
[42] = test system: CCRF-CEM
[43] = test system: SN12C
[44] = test system: SNB-75
[45] = test system: K562
[46] = test system: HCT-116
[47] = test system: SR
[48] = test system: SF-268
[49] = test system: KM12
[50] = test system: EKVX
[51] = test system: SK-MEL-2
[52] = test system: SW-620
[53] = test system: MDA-N
[54] = test system: M14
[55] = test system: DU-145
[56] = test system: MCF7
[57] = test system: RPMI-8226
[58] = test system: HCC 2998
[59] = test system: UO-31

## COc1ccc(CNC(=O)[C@@H]2CCCN2C(=O)[C@@H]2CCCN2C(=O)[C@H](C(C)C)N(C)C(=O)[C@@H](NC(=O)[C@H](C(C)C)N(Cc2ccccc2)Cc2ccccc2)C(C)C)cc1OC (Bn2Val-V[NMeV]PP-{NH(3,4-diMeO-benzyl)})
[1]
  GI50: 15.6 µM (inactive)
[2]
  GI50: 9.71 µM (inactive)
[3]
  GI50: 16.9 µM (inactive)
[4]
  GI50: 8.85 µM (inactive)
[5]
  GI50: 12.1 µM
[6]
  GI50: 14.5 µM (inactive)
[7]
  GI50: 17.8 µM (inactive)
[8]
  GI50: 8.3 µM (inactive)
[9]
  GI50: 13.5 µM (inactive)
[10]
  GI50: 10.4 µM (inactive)
[11]
  GI50: 15.1 µM (inactive)
[12]
  GI50: 11.7 µM (inactive)
[13]
  GI50: 6.15 µM (inactive)
[14]
  GI50: 18.5 µM (inactive)
[15]
  GI50: 16.9 µM (inactive)
[16]
  GI50: 14.5 µM (inactive)
[17]
  GI50: 18.9 µM (inactive)
[18]
  GI50: 12 µM (inactive)
[19]
  GI50: 4.26 µM (inactive)
[20]
  GI50: 13.7 µM (inactive)
[21]
  GI50: 15.7 µM (inactive)
[22]
  GI50: 51.3 µM (inactive)
[23]
  GI50: 11.1 µM (inactive)
[24]
  GI50: 14.7 µM (inactive)
[25]
  GI50: 12 µM (inactive)
[26]
  GI50: 17.3 µM (inactive)
[27]
  GI50: 15.9 µM (inactive)
[28]
  GI50: 25.2 µM (inactive)
[29]
  GI50: 15.8 µM (inactive)
[30]
  GI50: 11.3 µM (inactive)
[31]
  GI50: 3.15 µM (inactive)
[32]
  GI50: 17.1 µM (inactive)
[33]
  GI50: 17.5 µM (inactive)
[34]
  GI50: 3.92 µM (inactive)
[35]
  GI50: 12.6 µM (inactive)
[36]
  GI50: 18 µM (inactive)
[37]
  GI50: 18.3 µM (inactive)
[38]
  GI50: 14 µM (inactive)
[39]
  GI50: 7.5 µM (inactive)
[40]
  GI50: 14.9 µM (inactive)
[41]
  GI50: 4.39 µM (inactive)
[42]
  GI50: 4.23 µM (inactive)
[43]
  GI50: 15 µM (inactive)
[44]
  GI50: 10.3 µM (inactive)
[45]
  GI50: 7.55 µM (inactive)
[46]
  GI50: 14.4 µM (inactive)
[47]
  GI50: 4.54 µM (inactive)
[48]
  GI50: 21.3 µM (inactive)
[49]
  GI50: 21.4 µM (inactive)
[50]
  GI50: 13.4 µM (inactive)
[51]
  GI50: 13.4 µM (inactive)
[52]
  GI50: 12.8 µM (inactive)
[53]
  GI50: 14.7 µM (inactive)
[54]
  GI50: 14.6 µM (inactive)
[55]
  GI50: 14.8 µM (inactive)

## [N-]=[N+]=C(C(=O)CN1CCCC1=O)S(=O)(=O)c1ccccc1
[1]
  GI50: > 100 µM (inactive)
[2]
  GI50: > 100 µM (inactive)
[3]
  GI50: > 100 µM (inactive)
[4]
  GI50: > 100 µM (inactive)
[5]
  GI50: > 100 µM
[6]
  GI50: > 100 µM (inactive)
[8]
  GI50: > 100 µM (inactive)
[9]
  GI50: > 100 µM (inactive)
[10]
  GI50: > 100 µM (inactive)
[11]
  GI50: > 100 µM (inactive)
[12]
  GI50: > 100 µM (inactive)
[13]
  GI50: > 100 µM (inactive)
[14]
  GI50: > 100 µM (inactive)
[16]
  GI50: > 100 µM (inactive)
[17]
  GI50: > 100 µM (inactive)
[18]
  GI50: > 100 µM (inactive)
[19]
  GI50: > 100 µM (inactive)
[20]
  GI50: > 100 µM (inactive)
[56]
  GI50: > 100 µM (inactive)
[21]
  GI50: > 100 µM (inactive)
[22]
  GI50: > 100 µM (inactive)
[23]
  GI50: > 100 µM (inactive)
[24]
  GI50: > 100 µM (inactive)
[25]
  GI50: > 100 µM (inactive)
[26]
  GI50: > 100 µM (inactive)
[27]
  GI50: > 100 µM (inactive)
[28]
  GI50: > 100 µM (inactive)
[30]
  GI50: > 100 µM (inactive)
[31]
  GI50: > 100 µM (inactive)
[32]
  GI50: > 100 µM (inactive)
[57]
  GI50: > 100 µM (inactive)
[33]
  GI50: > 100 µM (inactive)
[34]
  GI50: > 100 µM (inactive)
[37]
  GI50: > 100 µM (inactive)
[38]
  GI50: > 100 µM (inactive)
[39]
  GI50: > 100 µM (inactive)
[58]
  GI50: > 100 µM (inactive)
[41]
  GI50: > 100 µM (inactive)
[42]
  GI50: > 100 µM (inactive)
[43]
  GI50: > 100 µM (inactive)
[44]
  GI50: > 100 µM (inactive)
[45]
  GI50: > 100 µM (inactive)
[46]
  GI50: > 100 µM (inactive)
[47]
  GI50: > 100 µM (inactive)
[48]
  GI50: > 100 µM (inactive)
[49]
  GI50: > 100 µM (inactive)
[50]
  GI50: > 100 µM (inactive)
[51]
  GI50: > 100 µM (inactive)
[59]
  GI50: > 100 µM (inactive)
[52]
  GI50: > 100 µM (inactive)
[53]
  GI50: > 100 µM (inactive)
[54]
  GI50: > 100 µM (inactive)
[55]
  GI50: > 100 µM (inactive)
